# Test results: US6686344B1, “Organic-arsonic compounds” (Paker Hughes Institute, priority 2003, dated 2004)
# Assays:
# [1] = test system: NALM-6 (B-lineage ALL); experiment: MTT cytotoxicity assay, NALM-6; format: cell-based; details: Homo sapiens, NALM-6 cells, 24-36 hours incubation
# Description: (§1) The cytotoxicity of compound II was evaluated against two acute lymphoblastic leukemia (ALL) cell lines, NALM-6 (B-lineage ALL), and MOLT-3 (T-lineage ALL) using MTT (3-[4,5-dimethylthiazol-2-yl]-2,5-diphenyl tetrazolium bromide) assay (Boehringer Mannheim Corp., Indianapolis, Ind. The human leukemic cell lines (NALM-6, and MOLT-3) were obtained from the American Type Culture Collection and maintained as a continuous cell line in Dulbecco's modified Eagles's medium supplemented with 10% fetal bovine serum and antibiotics. Briefly, exponentially growing cells were seeded into a 96-well plate at a density of 2.5×10^4 cells/well and incubated for 36 hours at 37° C. prior to exposure to the compound. On the day of treatment, culture medium was carefully aspirated from the wells and replaced with fresh medium containing compound II at concentrations ranging from 0.1 to 250 μM. Triplicate wells were used for each treatment.
# (§2) The cells were incubated with compound II for 24-36 hours at 37° C. in a humidified 5% CO2 atmosphere. […] The absorbance of each well was measured in a microplate reader (Labsystems) at 540 nm and a reference wavelength of 690 nm. […] The percent survival was calculated using the formula: [formula]
# (§3) The IC50 values for cytotoxic activity were determined using Graph-pad Prism software, version 2.0 (San Diego, Calif., USA) and are shown below in Table 1.
# [2] = test system: MOLT-3 (T-lineage ALL); experiment: MTT cytotoxicity assay, MOLT-3; format: cell-based; details: Homo sapiens, MOLT-3 cells, 24-36 hours incubation
# Description: as §1, §2, §3
smiles,measurement,setting,value
"O=[As](O)(O)c1ccc(N=Nc2ccc(Nc3nc(C(Cl)(Cl)Cl)nc4ccccc34)cc2)cc1 [Compound II, 2-Trichloromethyl-4-4-[4′-(4″-phenylazo)phenylarsonic Acid]-aminoquinazoline]",IC50,[1],1.1 ± 0.5 µM
same,melting point,,> 300 °C
same,IC50,[2],2 ± 0.8 µM
